Activity calls are given as the source filed them.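 How the source made its calls: active means IC50 under 10 µM in the follow-up dose response; inactive means IC50 10 µM or more, or under 40% single-dose inhibition.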
Target: Tyrosine-protein phosphatase non-receptor type 22 (Homo sapiens) (UniProt Q9Y2R2)
Assay: PTPN22 enzyme inhibition – biochemical, DiFMUP fluorescence, retest and dose response, confirmation (AID 1253)
Conditions: recombinant LYP; for inhibition: at 10 µM, stronger effect = higher value

Chain of Tyrosine-protein phosphatase non-receptor type 22 (Homo sapiens) (Q9Y2R2 whole entry, looked up): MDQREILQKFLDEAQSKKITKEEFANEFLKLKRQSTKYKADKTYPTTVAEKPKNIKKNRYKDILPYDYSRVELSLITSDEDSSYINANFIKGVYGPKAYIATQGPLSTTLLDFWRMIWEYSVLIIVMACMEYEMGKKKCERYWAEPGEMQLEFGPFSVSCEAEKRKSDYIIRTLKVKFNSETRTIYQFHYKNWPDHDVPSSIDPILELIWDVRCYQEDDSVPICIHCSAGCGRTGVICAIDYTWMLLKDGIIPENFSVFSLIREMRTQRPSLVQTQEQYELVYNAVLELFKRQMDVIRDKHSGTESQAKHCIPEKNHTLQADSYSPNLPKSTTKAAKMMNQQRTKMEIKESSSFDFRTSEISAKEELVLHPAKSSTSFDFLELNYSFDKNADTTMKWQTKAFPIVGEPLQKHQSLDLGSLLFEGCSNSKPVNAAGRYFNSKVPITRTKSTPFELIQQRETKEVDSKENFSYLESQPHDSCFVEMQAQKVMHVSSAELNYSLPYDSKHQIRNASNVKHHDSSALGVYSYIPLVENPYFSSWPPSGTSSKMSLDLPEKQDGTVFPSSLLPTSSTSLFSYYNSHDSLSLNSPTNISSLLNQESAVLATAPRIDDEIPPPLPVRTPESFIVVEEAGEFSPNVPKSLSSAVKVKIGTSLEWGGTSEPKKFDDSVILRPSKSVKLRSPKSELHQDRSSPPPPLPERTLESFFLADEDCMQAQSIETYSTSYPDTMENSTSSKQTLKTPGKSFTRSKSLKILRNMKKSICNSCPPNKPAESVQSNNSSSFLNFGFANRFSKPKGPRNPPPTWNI

Row | SMILES | inhibition | IC50
1 | CCOC(=O)c1c2ccc(OCC(=O)N/N=C/c3ccc(C)cc3)cc2n2ccccc12 | inactive | –
2 | CNC(=S)NNC(=O)c1cccn(Cc2ccc(Cl)cc2Cl)c1=O | inactive | –
3 | CNC(=S)NNC(=O)c1cccn(Cc2ccc(Cl)c(Cl)c2)c1=O | inactive | –
4 | O=C(COc1ccccc1C(=O)N/N=C\c1ccc(O)c(O)c1)N/N=C/c1ccc(O)c(O)c1 | inactive | –
5 | CCCn1c(Nc2ccc(Cl)cc2)nc2ccccc21 | inactive | –
6 | CCCCNS(=O)(=O)c1ccc(NS(=O)(=O)c2c(C)cc(C)cc2C)cc1 | inactive | –
7 | CC(=O)NC1CC2CCCC(C1)N2C(=O)Nc1ccccc1 (configuration not stated) | inactive | –
8 | CC(C)C(C(=O)O)N1C(=O)/C(=C/C=C/c2ccco2)SC1=S (configuration not stated) | – | 2.94 µM
9 | C=CCNC(=S)NNC(=O)c1cccn(Cc2ccc(Cl)cc2Cl)c1=O | inactive | –
10 | CCOC(=O)c1c(N2C(=O)Nc3cc(Cl)c(Cl)cc3N2O)sc2c1CCCCC2 | inactive | –
11 | O=C(N/N=C/C=C/c1ccccc1)c1cc2c(ccc3ccccc32)o1 | inactive | –
12 | O=C(Cn1c2ccccc2c(=O)c2ccccc21)N/N=C/c1cc([N+](=O)[O-])ccc1N1CCCCCC1 | inactive | –
13 | CNC(=S)NNC(=O)c1cccn(Cc2cccc(Cl)c2)c1=O | inactive | –
14 | CN1/C(=C\C=C\C2=[N+](C)c3ccc4ccccc4c3C2(C)C)C(C)(C)c2ccccc21 | inactive | –
15 | Cc1ccc(NC(=O)CN2C(=O)S/C(=C\c3cccn3-c3cccc(C(=O)O)c3)C2=O)c(C)c1 | – | 1.27 µM
16 | O=C(CSc1nnc(-c2ccc(Cl)s2)o1)N1CCCc2ccccc21 | inactive | –
17 | Clc1ccc(C2=C3CCCCn4c(-c5ccccc5)c[n+](c43)C2)cc1 | inactive | –
18 | O=C(N/N=C/c1ccncc1)c1cc([N+](=O)[O-])cc([N+](=O)[O-])c1O | inactive | –
19 | Cc1ccc(C(=O)n2nc(-c3ccco3)nc2N)cc1 | inactive | –
20 | O=C(Nc1cnc2ccccc2c1)C1COc2ccccc2O1 (configuration not stated) | inactive | –
21 | CCCNc1cc(=O)n(C)c(=O)n1C | inactive | –
22 | O=S(=O)(Nc1nc(-c2sccc2Cl)cs1)c1cc(Cl)ccc1Cl | inactive | –
23 | C=CCNC(=S)NNC(=O)c1cccn(Cc2ccc(Cl)c(Cl)c2)c1=O | inactive | –
24 | CC1CCc2c(C(=O)Nc3nccs3)csc2C1 (configuration not stated) | inactive | –

Row | SMILES | inhibition | IC50
25 | Nn1cnnc1N/N=C/c1cc(Br)cc(Br)c1O | inactive | –
26 | CCCC1COC(Cn2cncn2)(c2ccc(Cl)cc2Cl)O1 (configuration not stated) | inactive | –
27 | O=c1c(/C=N/Nc2ccccc2)c(Sc2nnnn2-c2ccccc2)nc2ccccn12 | inactive | –
28 | C=CCNC(=S)NNC(=O)c1cccn(Cc2ccc(Cl)cc2)c1=O | inactive | –
29 | O=C(Nc1nc(-c2ccccn2)cs1)c1ncc(Cl)c(Cl)c1Cl | inactive | –
30 | CCc1ccc2nc(NC(=O)c3ccc4c(=O)[nH]c(CN5CCOCC5)nc4c3)sc2c1 | inactive | –
31 | CCOc1ccc(N2C(=O)CS/C2=C(\C(Cl)=C(Cl)Cl)[N+](=O)[O-])cc1 | inactive | –
32 | O=C(c1ccc(Cl)cc1)c1cnc(-c2ccc(Cl)cc2)s1 | inactive | –
33 | CCOC(=O)C1=C(C)OC(N)=C(C#N)C1c1c(C)nn(-c2ccc(C)cc2)c1Cl (configuration not stated) | inactive | –
34 | CC(C(=O)O)N1C(=O)/C(=C/C=C/c2ccco2)SC1=S (configuration not stated) | – | 3.7 µM
35 | Cc1cc(SCC(=O)N/N=C/c2ccc(O)c(O)c2O)c(C)cc1Br | inactive | –
36 | C=CCNC(=S)NNC(=O)c1cccn(Cc2cccc(Cl)c2)c1=O | inactive | –
37 | Nc1nnc(SCC(=O)Nc2ccc(S(=O)(=O)N3CCOCC3)cc2)s1 | inactive | –
38 | COc1ccc2nc(SCc3cnc(C)nc3N)[nH]c2c1 | inactive | –
39 | CC1CCc2c(sc(NC(=O)c3ccc(Cn4cc([N+](=O)[O-])cn4)o3)c2C#N)C1 (configuration not stated) | inactive | –
40 | CCOc1ccc(N(CC(=O)Nc2ccccc2C(=O)NCc2ccco2)S(C)(=O)=O)cc1 | inactive | –
41 | Cc1nnc(SCC(=O)N/N=C/c2cn(-c3ccccc3)nc2-c2ccccc2)n1-c1ccccc1 | inactive | –
42 | Cc1ccc(-c2nnc(CSc3nnc(COc4cccc5ccccc45)n3-c3ccccc3)o2)cc1 | inactive | –
43 | Cc1ccc2nc(NC(=O)c3cccc(-c4cc5ccccc5oc4=O)c3)sc2c1 | inactive | –
44 | CCn1nc(C(=O)OCC(=O)c2cc(C)n(Cc3cccs3)c2C)c2ccccc2c1=O | inactive | –
45 | CN1CCn2c1nc(N1CCOCC1)nc2=O | inactive | –
46 | O=C(Nc1ccc(N2CCCCC2)c(Cl)c1)c1ccc2c(c1)OCCO2 | inactive | –
47 | Cc1ccc(Nc2cc(C)nn2-c2nc(C)cc(=O)[nH]2)cc1 | inactive | –
48 | O=C1C2C(C(=O)N1CCc1ccccc1)C1C=CC2C12CC2 (configuration not stated) | inactive | –

Row | SMILES | inhibition | IC50
49 | Cc1cc2c(cc1C)N(C(=O)CSC1=NCCS1)C(C)(C)c1ssc(=S)c1-2 | inactive | –
50 | COc1ccc(CN2CCN(C(=O)c3ccco3)CC2)cc1 | inactive | –
51 | O=C(NCc1ccco1)c1ccc2nc3sc4c(c3c(=O)n2c1)CCCC4 | inactive | –
52 | O=C(NC(C(=O)N/N=C/c1ccccc1)c1n[nH]c(=O)c2ccccc12)c1ccccc1 (configuration not stated) | inactive | –
53 | Cc1ccccc1Cn1ccc(NC(=O)CCSc2nc(-c3ccco3)cc(C(F)(F)F)n2)n1 | inactive | –
54 | CCNC(=S)NNC(=O)c1cccn(Cc2ccc(Cl)cc2)c1=O | inactive | –
55 | O=C(Cc1cnn(-c2ccccc2)c1)c1ccc(O)c(O)c1O | inactive | –
56 | CCCCCCc1cc2cc(-c3nnc(-c4ccccc4OC)o3)c(=O)oc2cc1O | inactive | –
57 | COc1ccc(C(=O)c2sc3nc(-c4ccccc4)ccc3c2N)cc1OC | inactive | –
58 | Cc1nc(S/C(=C/c2ccc(-c3cccc(Cl)c3)o2)C(=O)O)n[nH]1 | inactive | –
59 | Cc1cc(-c2csc(N)n2)c(C)n1CCC(C)C | inactive | –
60 | COc1cnc(-c2ccccn2)nc1Sc1ccc(Cl)cc1 | inactive | –
61 | O=C(Nc1ccc2oc(-c3cccc4ccccc34)nc2c1)c1ncn[nH]1 | inactive | –
62 | CC(=O)Nc1cccc(NC(=O)CCn2cnc3cc(C)c(C)cc32)c1 | inactive | –
63 | Cc1nc2c(c(=O)n1CCC1=CCCCC1)c1nc3ccccc3nc1n2/N=C/c1ccccc1 | inactive | –
64 | CCOC(=O)Cc1csc(NC(=S)NC(=O)c2ccc(Cl)cc2)n1 | inactive | –
65 | O=c1c(-c2nnc(SCc3ccc(Cl)cc3Cl)o2)cccn1Cc1ccccc1 | inactive | –
66 | COc1cc(-c2nnc(SCc3cc(=O)oc4cc(O)c(O)cc34)o2)cc(OC)c1OC | – | 2.6 µM
67 | O=C(N/N=C/c1cccc([N+](=O)[O-])c1)c1cc2c(ccc3ccccc32)o1 | inactive | –
68 | Cc1ccc(-c2nc3ccccc3[nH]2)cc1NC(=O)c1sc2ccccc2c1Cl | inactive | –
69 | COc1ccc(NC(=O)CSc2ccc3c4c(cccc24)C(=O)c2ccccc2-3)cc1 | inactive | –
70 | O=[N+]([O-])c1ccc(N2CCN(S(=O)(=O)c3ccc(Cl)cc3)CC2)cc1NCc1cccnc1 | inactive | –
71 | CN(C)c1ccc(/C=N/N=C2/NC(=O)/C(=C/c3ccc([N+](=O)[O-])cc3)S2)cc1 | inactive | –
72 | CCOc1ccc(N=C2NC(=O)S/C2=C\c2ccc(Cl)cc2)cc1 | inactive | –

From PubChem BioAssay AID1253 (Columbia University Molecular Screening Center, 2008)
